Values joined by “and” are separate entries in the source; they are usually repeats but may differ in a detail not shown here. Identical values can stand only once. Toxic doses and inconclusive results are not listed. Rule for the calls: active = survival T/C of 150% or more; inactive = T/C below 125% in these data.
System: P388 leukemia ip, CD2F1 mice, survival T/C
Assay: NCI In Vivo Anticancer Drug Screen. Data for tumor model P388 Leukemia (intraperitoneal) in CD2F1 (CDF1) mice
Conditions: endpoint: median survival time, higher = longer survival
Method in brief: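 Mice carrying the transplanted tumor received test compound or vehicle. Survival was recorded in each group, and the value is the treated-group measurement divided by that of the vehicle-treated control group.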

[1] = dose: 50.0 mg/kg/injection, schedule: Q01DX001 (ip), vehicle: Klucel (hydroxypropylcellulose) (HPC)
[2] = dose: 100.0 mg/kg/injection, schedule: Q01DX001 (ip), vehicle: Klucel (hydroxypropylcellulose) (HPC)
[3] = dose: 200.0 mg/kg/injection, schedule: Q01DX001 (ip), vehicle: Klucel (hydroxypropylcellulose) (HPC)
[4] = dose: 400.0 mg/kg/injection, schedule: Q01DX001 (ip), vehicle: Klucel (hydroxypropylcellulose) (HPC)
[5] = dose: 50.0 mg/kg/injection, schedule: Q01DX009 (ip), vehicle: suspension in saline
[6] = dose: 200.0 mg/kg/injection, schedule: Q01DX009 (ip), vehicle: suspension in saline
[7] = dose: 50.0 mg/kg/injection, schedule: Q01DX009 (ip), vehicle: saline with Tween-80
[8] = dose: 50.0 mg/kg/injection, schedule: Q01DX009 (ip), vehicle: saline
[9] = dose: 200.0 mg/kg/injection, schedule: Q01DX009 (ip), vehicle: saline
[10] = dose: 100.0 mg/kg/injection, schedule: Q01DX009 (ip), vehicle: saline with Tween-80
[11] = dose: 200.0 mg/kg/injection, schedule: Q01DX009 (ip), vehicle: saline with Tween-80
[12] = dose: 100.0 mg/kg/injection, schedule: Q04DX002 (ip), vehicle: saline with Tween-80
[13] = dose: 200.0 mg/kg/injection, schedule: Q04DX002 (ip), vehicle: saline with Tween-80
[14] = dose: 400.0 mg/kg/injection, schedule: Q04DX002 (ip), vehicle: saline with Tween-80
[15] = dose: 100.0 mg/kg/injection, schedule: Q01DX009 (ip), vehicle: saline
[16] = dose: 60.0 mg/kg/injection, schedule: Q01DX005 (ip), vehicle: saline with Tween-80
[17] = dose: 240.0 mg/kg/injection, schedule: Q01DX005 (ip), vehicle: saline with Tween-80
[18] = dose: 400.0 mg/kg/injection, schedule: Q01DX009 (ip), vehicle: saline with Tween-80
[19] = dose: 50.0 mg/kg/injection, schedule: Q01DX005 (ip), vehicle: Klucel (hydroxypropylcellulose) (HPC)
[20] = dose: 100.0 mg/kg/injection, schedule: Q01DX005 (ip), vehicle: Klucel (hydroxypropylcellulose) (HPC)
[21] = dose: 200.0 mg/kg/injection, schedule: Q01DX005 (ip), vehicle: Klucel (hydroxypropylcellulose) (HPC)

Measured: T/C

CCOC(=O)C1=C(N)CCCC1
inactive: [1] 107 % of control | [2] 96 % of control | [3] 110 % of control | [4] 99 % of control

CC(=O)OC1CC(C(C)C2CC(C)=C(C)C(=O)O2)C2(C)CCC3C(CC4OC45C(O)C=CC(=O)C35C)C12O (centres undefined)
inactive: dose: 7.5 mg/kg/injection, schedule: Q01DX005 (ip), vehicle: Klucel (hydroxypropylcellulose) (HPC) 108 % of control | dose: 15.0 mg/kg/injection, schedule: Q01DX005 (ip), vehicle: Klucel (hydroxypropylcellulose) (HPC) 105 % of control | dose: 30.0 mg/kg/injection, schedule: Q01DX005 (ip), vehicle: Klucel (hydroxypropylcellulose) (HPC) 101 % of control

COC1OCC(N=[N+]=[N-])C(O)C1O (centres undefined)
inactive: dose: 25.0 mg/kg/injection, schedule: Q01DX005 (ip), vehicle: saline 98 % of control | dose: 50.0 mg/kg/injection, schedule: Q01DX005 (ip), vehicle: saline 102 % of control | dose: 100.0 mg/kg/injection, schedule: Q01DX005 (ip), vehicle: saline 100 % of control | dose: 200.0 mg/kg/injection, schedule: Q01DX005 (ip), vehicle: saline 102 % of control

Cc1ccc(S(=O)(=O)/C=C/c2ccc([N+](=O)[O-])o2)cc1
inactive: [5] 108 % of control | dose: 100.0 mg/kg/injection, schedule: Q01DX009 (ip), vehicle: suspension in saline 104 % of control | [6] 104 % of control

CCOC(=O)CCc1nc(C)ncc1C(=O)OCC
inactive: dose: 12.5 mg/kg/injection, schedule: Q01DX009 (ip), vehicle: saline with Tween-80 104 % of control | dose: 25.0 mg/kg/injection, schedule: Q01DX009 (ip), vehicle: saline with Tween-80 106 % of control | [7] 100 % of control | [8] 91 % of control | [9] 87 % of control

CCOC(=O)Nc1ccc2nc(Sc3ccc(Cl)cc3)sc2c1
inactive: [7] 103 % of control | [10] 100 % of control | [11] 106 % of control

CC(O)[C@H]1CC[C@H]2[C@@H]3CC(=O)[C@H]4C[C@H](O)[C@H](O)C[C@]4(C)[C@H]3CC[C@]12C (some centres undefined)
inactive: [12] 91 % of control | [13] 90 % of control | [14] 90 % of control

CC/C(=N\NS(=O)(=O)c1ccc(C)cc1)c1cccc(C#N)c1
inactive: [8] 106 % of control | [15] 96 % of control | [9] 99 % of control

CCOC(C)(c1ccc(Cl)cc1)C1CCNCC1 (centres undefined)
inactive: [7] 101 % of control | [10] 119 % of control

C1COCCN2CCOCCOCCN(CCO1)CCOCC2
inactive: [8] 109 % of control | [15] 106 % of control | [9] 107 % of control

CC1(C)CC[C@]2(C(=O)O)CC[C@]3(C)C(=CC[C@@H]4[C@@]5(C)C[C@H](O)[C@H](O)[C@@](C)(C(=O)O)[C@@H]5CC[C@]43C)[C@@H]2C1
inactive: dose: 1.1 mg/kg/injection, schedule: Q01DX005 (ip), vehicle: Klucel (hydroxypropylcellulose) (HPC) 91 % of control | dose: 2.12 mg/kg/injection, schedule: Q01DX005 (ip), vehicle: Klucel (hydroxypropylcellulose) (HPC) 89 % of control | dose: 4.25 mg/kg/injection, schedule: Q01DX005 (ip), vehicle: Klucel (hydroxypropylcellulose) (HPC) 100 % of control and 91 % of control | dose: 8.5 mg/kg/injection, schedule: Q01DX005 (ip), vehicle: Klucel (hydroxypropylcellulose) (HPC) 88 % of control and 90 % of control | dose: 17.0 mg/kg/injection, schedule: Q01DX005 (ip), vehicle: Klucel (hydroxypropylcellulose) (HPC) 92 % of control and 93 % of control | dose: 34.0 mg/kg/injection, schedule: Q01DX005 (ip), vehicle: Klucel (hydroxypropylcellulose) (HPC) 87 % of control

CN(C)CCCNc1nc2ccccc2c2ccnn12
inactive: dose: 5.5 mg/kg/injection, schedule: Q01DX009 (ip), vehicle: saline 109 % of control | dose: 11.0 mg/kg/injection, schedule: Q01DX009 (ip), vehicle: saline 100 % of control | dose: 22.0 mg/kg/injection, schedule: Q01DX009 (ip), vehicle: saline 100 % of control

COc1ccc(Cl)c2c(N=Nc3ccccc3[N+](=O)[O-])c(O)[nH]c12
inactive: dose: 15.0 mg/kg/injection, schedule: Q01DX005 (ip), vehicle: saline with Tween-80 103 % of control | dose: 30.0 mg/kg/injection, schedule: Q01DX005 (ip), vehicle: saline with Tween-80 99 % of control | [16] 95 % of control | [17] 87 % of control

COc1ccc(OC)c(/C=C/c2ccc3ccccc3n2)c1
inactive: [10] 90 % of control | [11] 90 % of control | [18] 104 % of control

O=C(NNc1ccccc1)NN(C(=O)Nc1cccc(Cl)c1)c1ccccc1
inactive: [19] 96 % of control | [20] 104 % of control | [21] 100 % of control

COc1ccc(CSC(=S)Nc2cccc(C(F)(F)F)c2)cc1
inactive: [8] 97 % of control | [5] 90 % of control | [15] 101 % of control | [9] 118 % of control | [6] 99 % of control

C/C(=N\Nc1cc(C)c2cccc(C)c2n1)c1ccccn1
inactive: dose: 50.0 mg/kg/injection, schedule: Q01DX005 (ip), vehicle: saline with Tween-80 105 % of control | dose: 100.0 mg/kg/injection, schedule: Q01DX005 (ip), vehicle: saline with Tween-80 91 % of control | dose: 200.0 mg/kg/injection, schedule: Q01DX005 (ip), vehicle: saline with Tween-80 91 % of control

CN1C(=O)C(=O)N(Cc2ccco2)C1=O
inactive: dose: 50.0 mg/kg/injection, schedule: Q01DX009 (ip), vehicle: Klucel (hydroxypropylcellulose) (HPC) 97 % of control | dose: 100.0 mg/kg/injection, schedule: Q01DX009 (ip), vehicle: Klucel (hydroxypropylcellulose) (HPC) 100 % of control | dose: 200.0 mg/kg/injection, schedule: Q01DX009 (ip), vehicle: Klucel (hydroxypropylcellulose) (HPC) 101 % of control

Cc1cccc(C(=O)N(C)C(c2ccco2)P(=O)(c2ccccc2)c2ccccc2)c1 (centres undefined)
inactive: [7] 107 % of control | [10] 101 % of control | [11] 90 % of control | [18] 86 % of control

C=CCC1(OC(C)=O)CC2C(=O)C(=O)C(C1)N2OC(=O)c1ccccc1 (centres undefined)
inactive: [19] 100 % of control | [20] 87 % of control | [21] 94 % of control

Cc1cc(C)n2c(-c3ccccc3)c(C)c(C#N)c2n1
inactive: [16] 106 % of control | dose: 120.0 mg/kg/injection, schedule: Q01DX005 (ip), vehicle: saline with Tween-80 100 % of control | [17] 91 % of control

C/C(=N\Nc1ccc([N+](=O)[O-])cc1[N+](=O)[O-])c1ccc(C)cc1
inactive: [1] 105 % of control | [2] 107 % of control | [3] 95 % of control | [4] 91 % of control

CNC(=O)OCCC(OC(=O)NC)C1CCC2C3CC=C4CC(OC(=O)NC)CCC4(C)C3CCC12C (centres undefined)
inactive: dose: 60.0 mg/kg/injection, schedule: Q01DX005 (ip), vehicle: Klucel (hydroxypropylcellulose) (HPC) 99 % of control | dose: 120.0 mg/kg/injection, schedule: Q01DX005 (ip), vehicle: Klucel (hydroxypropylcellulose) (HPC) 93 % of control | dose: 240.0 mg/kg/injection, schedule: Q01DX005 (ip), vehicle: Klucel (hydroxypropylcellulose) (HPC) 100 % of control

CCOC(OCC)N(C)C
inactive: dose: 60.0 mg/kg/injection, schedule: Q01DX005 (ip), vehicle: saline 95 % of control | dose: 120.0 mg/kg/injection, schedule: Q01DX005 (ip), vehicle: saline 100 % of control | dose: 240.0 mg/kg/injection, schedule: Q01DX005 (ip), vehicle: saline 93 % of control

CN1c2ccccc2S(=O)(=O)n2c(Cc3ccccc3)nnc21
inactive: [12] 92 % of control | [13] 90 % of control | [14] 90 % of control

O=CC(=O)Cc1ccccc1
inactive: [8] 99 % of control and 98 % of control | [15] 105 % of control and 98 % of control | [9] 100 % of control and 92 % of control | dose: 400.0 mg/kg/injection, schedule: Q01DX009 (ip), vehicle: saline 99 % of control and 100 % of control

C/C=C(\C)C(=O)Nc1c(C)cccc1Cl
inactive: dose: 100.0 mg/kg/injection, schedule: Q04DX002 (ip), vehicle: Klucel (hydroxypropylcellulose) (HPC) 106 % of control | dose: 200.0 mg/kg/injection, schedule: Q04DX002 (ip), vehicle: Klucel (hydroxypropylcellulose) (HPC) 104 % of control

COc1cc(C2N3CCCN2CC3)cc(OC)c1OC (centres undefined)
inactive: [15] 101 % of control | [9] 102 % of control

From PubChem BioAssay AID330 (DTP/NCI, 2004)
